{"source": "paper PMC5316865", "about": "“Covalent assembly of nanoparticles as a peptidase-degradable platform for molecular MRI” (Nature Communications, 2017)", "target": "cathepsin L (Homo sapiens, UniProt P07711)", "sequence (P07711 114-333, species assumed)": "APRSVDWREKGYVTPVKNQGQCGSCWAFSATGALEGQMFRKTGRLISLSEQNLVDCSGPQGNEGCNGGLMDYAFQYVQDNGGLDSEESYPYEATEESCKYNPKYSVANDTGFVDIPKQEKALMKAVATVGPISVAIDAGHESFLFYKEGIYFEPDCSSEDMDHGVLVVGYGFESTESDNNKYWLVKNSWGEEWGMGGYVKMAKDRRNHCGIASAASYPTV", "settings": "50 µM peptide, citrate buffer 0.1 M pH 5.5, 1 mM EDTA, 2 mM DTT, 37 °C, overnight reaction, product formation by HPLC", "note": "Peptide text beside a SMILES is read from it. * marks the point of attachment. Fmoc = O=C(OCC1c2ccccc2-c2ccccc21)*; Ahx = NCCCCCC(=O)O", "experimental": "Activity assay of peptides with cathepsin L.\nThe reaction mixture was analysed by HPLC to\ndetect the formation of products from the overnight reaction.\nDegradation of non-fluorescent peptides by cathepsin L\nA solution of cathepsin L (20 µg/mL, 24 units/L) in citrate buffer 0.1 M pH 5.5, 1 mM EDTA, 2 mM\nDTT was preactivated at 25 °C for 15 minutes. A stock solution of peptide 4, 5, 6 or 7 (125 µL, 25 nmol,\n0.20 mM in DMSO) was diluted in 365 µL of the assay buffer to a final concentration of 50 µM and pre-\nincubated at 37 °C. 10 µL of pre-activated cathepsin L was then added to the peptide solution and\nincubated with mild shaking at 37 °C. Aliquots of 100 µL were withdrawn at 0 min, 1 hour and overnight.\nSamples were flash-frozen on liquid nitrogen and were heated at 100 °C for 120 seconds prior to the", "data": [{"smiles": "CC(C)[C@H](NC(=O)[C@H](Cc1ccccc1)NC(=O)CCCCCNC(=O)CCCCCNC(=O)OCC1c2ccccc2-c2ccccc21)C(=O)N[C@@H](CCCNC(=N)N)C(=O)NCC(=O)N[C@@H](C)C(=O)NCC(=O)N[C@@H](CCC(=O)O)C(N)=O", "note": "[Peptide 3, Fmoc-Ahx-Ahx-FVRGAGE] ({Fmoc-Ahx-Ahx}-FVRGAGE-NH2)", "values": [{"measurement": "Activity assay of peptides with cathepsin L", "value": "active"}]}]}
